The values that follow come from publication PMC8066102, “Metabolic Profiles of New Unsymmetrical Bisacridine Antitumor Agents in Electrochemical and Enzymatic Noncellular Systems and in Tumor Cells” (Pharmaceuticals, 2021).

Like-named read-outs stand apart in the source and are kept apart here.

A short description of data set [1]: pKa determination by spectrophotometric titration. To be noted: 23 aqueous buffer solutions, pH 1.5-11, pH 1.5, 0.02 mM compound, pH 1.5-11, UV-vis, principal component analysis. Format: physicochemical. The method, then: The concentration of the compounds in the working solutions was 0.02 mM, pH was changed in the range 1.5–11 at 23 buffer solutions: 1.5–3.5 (interval 0.5 unit—HCl solution), 4.0–5.5 (interval 0.5 unit—acetic buffer), 6.1–7.5 (interval 0.2 unit—PIPES (2-[4-(2-sulphoethyl)piperazine-1-ethanesulphonic acid) buffer), 7.7–8.1 (interval 0.2 unit—HEPES (4-(2-hydroxyethyl)piperazine-1-ethanesulphonic acid) buffer) and 9–11 (interval 1 unit—borate buffer).
PKa values for tested UAs were determined by spectrophotometric titration using a Cary 300 Bio instrument. The UV-vis spectra obtained for all solutions in the examined pH range were subjected to the chemometric technique principal component analysis. This procedure makes it possible to determine the number of spectral forms present in the tested samples and to estimate the mole fractions for each of them. To determine pKa values the relationships between the mole fractions of individual spectral forms and the pH of the samples were used. The first approximation of pKa values have been assigned to the values of pH corresponding to the central points of each titration wave. Numerical optimization by the adjustment of pKa values to the obtained molar fractions allowed to refine these values and the cross-validation procedure let to determine their standard deviations.

Another data set addresses T1, UGT 2B4 (Homo sapiens, UniProt P06133).
T1 construct: purchased Corning, NY, USA (through DIAG-MED, Poland); host or cells: baculovirus-insect cells (Supersomes)
T1 sequence (P06133 24-528): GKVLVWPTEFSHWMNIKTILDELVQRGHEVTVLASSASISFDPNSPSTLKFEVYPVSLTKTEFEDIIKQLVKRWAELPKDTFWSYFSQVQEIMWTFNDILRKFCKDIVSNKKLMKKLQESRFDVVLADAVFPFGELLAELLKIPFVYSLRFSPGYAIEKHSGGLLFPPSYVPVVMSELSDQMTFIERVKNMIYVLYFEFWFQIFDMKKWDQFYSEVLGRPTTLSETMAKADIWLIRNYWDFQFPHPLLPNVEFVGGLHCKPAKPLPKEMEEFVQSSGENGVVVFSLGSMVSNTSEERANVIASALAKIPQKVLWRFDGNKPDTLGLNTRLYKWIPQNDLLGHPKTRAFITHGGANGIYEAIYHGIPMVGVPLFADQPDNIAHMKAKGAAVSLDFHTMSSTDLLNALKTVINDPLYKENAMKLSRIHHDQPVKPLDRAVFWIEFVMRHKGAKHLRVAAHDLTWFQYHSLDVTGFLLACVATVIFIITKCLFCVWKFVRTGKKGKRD
Put plainly: Glucuronidation with recombinant UGT2B4. To be noted: 0.05 mM compound, 1 mg/mL UGT, 5 mM UDPGA. Also on record: key: −: the lack of UGT activity; +: the significant UGT activity. Format: in vitro ADME. On the procedure:
(§1) Recombinant UGT isoform protein (1 mg/mL) was assayed for activity toward tested UAs as follows. The proteins were incubated in a buffer containing 0.1 M HEPES (pH 7.4), 8 mM MgCl2 and alamethicin (25 μg/mL) with either 0.05 mM substrate in total volume 70 µL (alamethicin was added to permeabilize the membrane). Substrates were also in buffer HEPES, pH 7.4. Reactions were started by the addition of UDPGA (5 mM) and were incubated for specified time at 37 °C. The reactions were stopped by the addition of 8.75 µL of 1 M HCl, followed by centrifugation at 13400 rpm for 10 min to pellet the denatured protein. The supernatant fractions were used for HPLC analysis. Control reactions omitting substrate were run with each assay. All incubations were performed in two repetitions.

A further data set deals with T2, UGT2B7 (Homo sapiens, UniProt P16662).
T2 construct: purchased Corning, NY, USA (through DIAG-MED, Poland); host or cells: baculovirus-insect cells (Supersomes)
T2 sequence (P16662 24-529): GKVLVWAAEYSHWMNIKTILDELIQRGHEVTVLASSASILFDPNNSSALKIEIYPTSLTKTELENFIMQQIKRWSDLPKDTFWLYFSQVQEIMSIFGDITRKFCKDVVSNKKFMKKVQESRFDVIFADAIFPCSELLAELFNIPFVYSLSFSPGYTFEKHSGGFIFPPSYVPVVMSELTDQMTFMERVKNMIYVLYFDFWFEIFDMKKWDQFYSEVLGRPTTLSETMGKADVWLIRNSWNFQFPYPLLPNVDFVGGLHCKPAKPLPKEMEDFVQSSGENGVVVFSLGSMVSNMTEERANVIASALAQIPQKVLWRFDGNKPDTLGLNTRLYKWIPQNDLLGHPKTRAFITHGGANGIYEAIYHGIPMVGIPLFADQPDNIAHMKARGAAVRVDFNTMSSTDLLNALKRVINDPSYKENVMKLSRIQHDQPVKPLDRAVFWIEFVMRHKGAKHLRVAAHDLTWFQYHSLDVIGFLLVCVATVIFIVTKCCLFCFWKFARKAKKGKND
Put plainly: Glucuronidation with recombinant UGT2B7. Format: in vitro ADME. Also on record: key: −: the lack of UGT activity; +: the significant UGT activity. The note with it: 0.05 mM compound, 1 mg/mL UGT, 5 mM UDPGA. The method, then:
as §1

The target of another data set is T3, UGT 2B17 (Homo sapiens, UniProt O75795).
T3 construct: purchased Corning, NY, USA (through DIAG-MED, Poland); host or cells: baculovirus-insect cells (Supersomes)
T3 sequence (O75795 24-530): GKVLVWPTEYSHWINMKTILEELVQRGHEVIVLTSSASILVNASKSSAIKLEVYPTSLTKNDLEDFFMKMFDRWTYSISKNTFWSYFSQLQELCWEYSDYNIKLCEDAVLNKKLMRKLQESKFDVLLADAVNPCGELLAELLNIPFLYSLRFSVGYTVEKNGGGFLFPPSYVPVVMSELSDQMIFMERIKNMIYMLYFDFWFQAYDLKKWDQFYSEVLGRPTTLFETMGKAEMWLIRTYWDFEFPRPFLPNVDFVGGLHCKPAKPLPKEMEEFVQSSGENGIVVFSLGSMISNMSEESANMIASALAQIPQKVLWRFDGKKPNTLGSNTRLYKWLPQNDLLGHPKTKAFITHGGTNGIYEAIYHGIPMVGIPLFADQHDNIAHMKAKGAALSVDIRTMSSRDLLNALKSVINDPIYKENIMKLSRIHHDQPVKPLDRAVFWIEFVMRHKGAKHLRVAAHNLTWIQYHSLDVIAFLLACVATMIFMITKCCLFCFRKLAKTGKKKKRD
Kind of data set: Glucuronidation with recombinant UGT2B17. Format: in vitro ADME. The note with it: 0.05 mM compound, 1 mg/mL UGT, 5 mM UDPGA. Also on record: key: −: the lack of UGT activity; +: the significant UGT activity. The method, then: as §1

With `CN(CCCNc1c2ccccc2nc2cccc([N+](=O)[O-])c12)CCCNc1ccc2ncn3c4ccccc4c(=O)c1c23` [C-2028], the pKa (commonly the negative logarithm of the acid dissociation constant) is 2.22 in data set [1] (read-out: pKa 1), 6.01 in data set [1] (read-out: pKa 2) and 7.41 in data set [1] (read-out: pKa 3). Further, the “Glucuronidation potency UGT 2B4” value on UGT 2B4 is given as “−”. Further, the “Glucuronidation potency UGT 2B7” value on UGT2B7 is reported as “−”. Also, the “Glucuronidation potency UGT 2B17” value on UGT 2B17 is listed as “−”.

As to `Cc1ccc([N+](=O)[O-])c2c(NCCCN(C)CCCNc3ccc4ncn5c6ccc(O)cc6c(=O)c3c45)c3ccccc3nc12` [C-2045], the pKa was determined as 2.33 in data set [1] (read-out: pKa 1), 6.37 in data set [1] (read-out: pKa 2) and 7.5 in data set [1] (read-out: pKa 3). Besides, the “Glucuronidation potency UGT 2B4” value on UGT 2B4 is reported as “−”. For the same molecule, on UGT2B7, the “Glucuronidation potency UGT 2B7” value was “−”. Moreover, the “Glucuronidation potency UGT 2B17” value at UGT 2B17 is given as “−”.

For `Cc1ccc([N+](=O)[O-])c2c(NCCCN(C)CCCNc3ccc4ncn5c6ccccc6c(=O)c3c45)c3ccccc3nc12` [C-2053], the pKa was found to be 2.19 in data set [1] (read-out: pKa 1), 6.19 in data set [1] (read-out: pKa 2) and 7.49 in data set [1] (read-out: pKa 3). Further, on UGT 2B4, the “Glucuronidation potency UGT 2B4” value is “−”. Also, the “Glucuronidation potency UGT 2B7” value on UGT2B7 is given as “−”. The “Glucuronidation potency UGT 2B17” value at UGT 2B17 was “−”.
